# According to patent US20250066735A1, “PREPARATION METHOD OF MESENCHYMAL STEM CELL (MSC) AND APPLICATION THEREOF IN KNEE PRODUCT” (GUANGDONG CELL BIOTECHNOLOGY CO. LTD, priority 2024, published 2025):
# System: human bone marrow-derived MSCs
# Experiment: Trypan blue survival rate of MSCs pre-cultivated with additive medium, after H2O2 challenge
# Type: cell-based
# Details: for Cell survival rate-improving effect (in words): compared among additive compositions, H2O2 challenge; for Cell survival rate: third-generation MSCs cultivated with medium additive, then low-sugar DMEM with 100 mM H2O2 for 1 h, Trypan blue
# Experimental: (1) Isolation of bone marrow-derived MSCs from a bone marrow: 20 mL to 40 mL of a human bone marrow was extracted and added to a sterile glass bottle with 3,000 U heparin, and the human bone marrow and the heparin were fully mixed for anticoagulation. Normal saline was added at the same amount as the human bone marrow to the sterile glass bottle, and mixing was conducted thoroughly to obtain diluted human bone marrow. The diluted human bone marrow was added slowly to a Ficoll liquid level with 1 part by volume of a lymphocyte separation solution (Ficoll separation solution) per 2 parts by volume of the diluted human bone marrow to obtain a mixed system. The mixed system was centrifuged at 2,000 r/min and 20° C. in a horizontal centrifuge for 25 min, and bone marrow-derived MSCs were collected from an interface, washed with normal saline 2 to 3 times, suspended with an appropriate amount of a culture medium, and counted.
# (2) Primary cultivation of the bone marrow-derived MSCs: The bone marrow-derived MSCs obtained in the step (1) were inoculated at a density of 0.3×10^6/mL in a basal medium, and the primary cultivation was conducted. The basal medium is Dulbecco's Modified Eagle Medium (DMEM, GIBCO company, America). During the primary cultivation, the medium was changed every 2 d to remove non-adherent cells and continuously purify the human bone marrow-derived MSCs. When a cell density reached 80%, the sub-cultivation was conducted. For an experimental group, an additive composition of NOG and quercetin was added to the basal medium to prepare an experimental medium.
# The sub-cultivation was conducted until third-generation human bone marrow-derived MSCs were obtained. The third-generation human bone marrow-derived MSCs were further cultivated with the experimental medium for cell transplantation.
# (3) A survival rate of the human bone marrow-derived MSCs was detected with Trypan blue. The human bone marrow-derived MSCs obtained in the step (2) (cells cultivated without NOG and quercetin were adopted as a control group) were transferred to a low-sugar DMEM including 100 mM hydrogen peroxide (H2O2), cultivated for 1 h, stained with Trypan blue, and observed under a microscope to count a cell survival rate.
SMILES,Cell survival rate-improving effect (in words),Cell survival rate [%]
"O=C(O)CNC(=O)C(=O)O [compound 2, N-oxalylglycine]",inferior cell survival rate-improving effect,52.3 ± 0.8
"O=c1c(O)c(-c2ccc(O)c(O)c2)oc2cc(O)cc(O)c12 [compound 1, quercetin]",inferior cell survival rate-improving effect,50.2 ± 0.7
